# Data as given in US8440836B2, “Heterocyclic alkanol derivatives” (Bayer Intellectual Property GmbH, priority 2010, dated 2013).
# Legend:
# [1] = test system: Puccinia triticina; assay: Puccinia triticina test (wheat)/protective; assay type: in vivo; conditions: wheat plants, protective spray, 500 ppm active ingredient, evaluation 8 days after inoculation
# Excerpt: Evaluation follows 8 days after the inoculation.
# [2] = logP by HPLC (EEC Directive 79/831 Annex V.A8); assay type: physicochemical; conditions: HPLC reversed-phase C18, method [a]: LC-MS, pH 2.7, 0.1% aqueous formic acid / acetonitrile, gradient 10% to 95% acetonitrile; for chromatographic logP: reversed-phase C18 HPLC column
# [3] = test system: Blumeria graminis f.sp. hordei; assay: Blumeria graminis test (barley)/protective; assay type: in vivo; conditions: barley plants, protective spray, 500 ppm active ingredient, evaluation 7 days after inoculation
# [4] = test system: Leptosphaeria nodorum; assay: Leptosphaeria nodorum test (wheat)/protective; assay type: in vivo; conditions: wheat plants, protective spray, 500 ppm active ingredient, evaluation 8 days after inoculation
# [5] = test system: Sphaerotheca fuliginea; assay: Sphaerotheca test (cucumber)/protective; conditions: cucumber plants, protective spray, 500 ppm active ingredient, evaluation 7 days after inoculation
# Protocol: • Solvent: 49 parts by weight of N,N-dimethylformamide • Emulsifier: 1 part by weight of alkylaryl polyglycol ether
# To produce an appropriate active ingredient formulation, 1 part by weight of active ingredient is mixed with the specified amounts of solvent and emulsifier, and the concentrate is diluted with water to the desired concentration. To test for protective activity, young cucumber plants are sprayed with the formulation of active ingredient at the stated application rate. 1 day after the treatment, the plants are inoculated with a spore suspension of Sphaerotheca fuliginea. The plants are then placed in a greenhouse at 70% relative air humidity and a temperature of 23° C. Evaluation follows 7 days after the inoculation.
# [6] = test system: Septoria tritici; assay: Septoria tritici test (wheat)/protective; assay type: in vivo; conditions: wheat plants, protective spray, 500 ppm active ingredient, evaluation 21 days after inoculation
SMILES,efficacy [5] [%],logP [2],other results
CC(CF)(CF)C(O)(COc1ccc(I)cc1)c1cncs1 (centres unmarked) [Compound 4],100,–,efficacy [1]: 100%; chromatographic logP [2]: 3.16; efficacy [3]: 100%; efficacy [4]: 100%; efficacy [6]: 100%
CC(C)(C)C(O)(CCc1ccc(Cl)cc1)c1cncs1 (centres unmarked) [Compound 5],100,–,–
CC(C)(C)C(O)(CCc1ccc(SC(F)(F)F)cc1)c1cncs1 (centres unmarked) [Compound 6],100,–,–
OC(Cc1ccccc1Cl)(c1cncs1)C1(Cl)CC1 (centres unmarked) [Compound 7],83,–,–
CC(CF)(CF)C(O)(COc1ccc(Br)cc1)c1cncs1 (centres unmarked) [Compound 8],94,logP 3.02^[a]; [M + H]^+ = 392/394.,efficacy [3]: 89%
CC(CF)(CF)C(O)(COc1ccc(Cl)cc1)c1cncs1 (centres unmarked) [Compound 9],95,logP 2.94^[a]; [M + H]^+ = 348,–
OC(Cc1ccccc1Cl)(c1cncs1)C1(F)CC1 (centres unmarked) [Compound 11],70,logP 2.64^[a]; [M + H]^+ = 298,efficacy [3]: 78%
CC(C)(C)C(O)(COc1ccc(Cl)cc1)c1cnc(S)s1 (centres unmarked) [Compound 12],98,–,chromatographic logP [2]: 3.06; efficacy [3]: 89%; efficacy [4]: 86%
OC(COc1ccc(Cl)cc1)(c1cncs1)C1(Cl)CC1 (centres unmarked) [Compound 16],78,–,–
CC(C)C(O)(COc1ccc(SC(F)(F)F)cc1)c1cncs1 (centres unmarked) [Compound 17],93,–,–
CC(C)(C)C(O)(CCc1ccc(Cl)cc1)Cc1cncs1 (centres unmarked) [Compound 18],95,–,–
CC(C)(C)C(O)(COc1ccc(-c2ccc(I)cc2)cc1)c1cncs1 (centres unmarked) [Compound 19],–,logP 4.89^[a]; [M + H]^+ = 480,–
CC(C)(C)C(O)(COc1ccc(OC(F)(F)F)cc1)c1cncs1 (centres unmarked) [Compound 20],88,–,efficacy [1]: 100%; efficacy [3]: 100%; efficacy [4]: 100%; efficacy [6]: 100%
CC(C)C(O)(COc1ccc(I)cc1)c1cncs1 (centres unmarked) [Compound 21],85,–,–
CC(C)C(O)(COc1ccc(Br)cc1)c1cncs1 (centres unmarked) [Compound 22],96,–,–
CC(C)C(O)(COc1ccc(Cl)cc1)c1cncs1 (centres unmarked) [Compound 23],80,–,–
CC1(C(O)(COc2ccccc2Br)c2cncs2)CC1 (centres unmarked) [Compound 24],83,–,–
CC1(C(O)(COc2ccc(I)cc2)c2cncs2)CCCCC1 (centres unmarked) [Compound 25],100,logP 4.53^[a]; [M + H]^+ = 444,efficacy [1]: 78%; efficacy [6]: 86%
CC1(C(O)(COc2cccc(I)c2)c2cncs2)CC1 (centres unmarked) [Compound 26],75,logP 3.41^[a]; [M + H]^+ = 402,–
CC1(C(O)(COc2cccc(Br)c2)c2cncs2)CC1 (centres unmarked) [Compound 27],93,"logP 3.24^[a]; [M + H]^+ = 354, 356",–
CC(C)(C)C(O)(COc1ccc(Oc2ccc(Br)cc2)cc1)c1cncs1 (centres unmarked) [Compound 28],95,logP 4.66^[a]; [M + H]^+ = 448/450,–
CC(C)(C)C(O)(COc1ccc(Oc2ccc(Cl)cc2)cc1)c1cncs1 (centres unmarked) [Compound 29],98,logP 4.50^[a]; [M + H]^+ = 404,–

SMILES,efficacy [5] [%],logP [2],other results
CC(C)(C)C(O)(COc1ccc(-c2ccc(C(F)(F)F)cc2)cc1)c1cncs1 (centres unmarked) [Compound 30],–,logP 4.62^[a]; [M + H]^+ = 422,–
CC(=O)c1ccc(-c2ccc(OCC(O)(c3cncs3)C(C)(C)C)cc2)cc1 (centres unmarked) [Compound 31],100,–,–
CC(C)(C)C(O)(COc1ccc(Oc2ccc(C(F)(F)F)cc2)cc1)c1cncs1 (centres unmarked) [Compound 32],96,logP 4.63^[a]; [M + H]^+ = 438,–
CC1(C(O)(COc2ccc(Cl)cc2)c2cncs2)CCCCC1 (centres unmarked) [Compound 34],99,logP 4.25^[a]; [M + H]^+ = 352,–
CC(C)(C)C(O)(COc1ccc(-c2ccc(Cl)cc2)cc1)c1cncs1 (centres unmarked) [Compound 36],98,logP 4.55^[a]; [M + H]^+ = 388,–
CC(C)(C)C(O)(COc1ccc(C2CCCCC2)cc1)c1cncs1 (centres unmarked) [Compound 37],100,logP 5.21^[a]; [M + H]^+ = 360,–
CC(C)(C)C(O)(COc1ccc(Oc2ccc(F)cc2)cc1)c1cncs1 (centres unmarked) [Compound 38],98,logP 4.03^[a]; [M + H]^+ = 388,–
OC(Cc1cnc(I)s1)(Cc1ccccc1Cl)C1(Cl)CC1 (centres unmarked) [Compound 39],100,–,efficacy [3]: 90%
CC(C)(C)c1ccc(OCC(O)(c2cncs2)C(C)(C)C)cc1 (centres unmarked) [Compound 40],90,logP 4.39^[a]; [M + H]^+ = 334,–
CC(C)(C)C(O)(COc1ccc(F)cc1)c1cncs1 (centres unmarked) [Compound 42],94,logP 2.91^[a]; [M + H]^+ = 296,efficacy [1]: 89%; efficacy [3]: 100%
CC(C)(C)C(O)(COc1cccc(Oc2ccccc2)c1)c1cncs1 (centres unmarked) [Compound 43],–,logP 3.98^[a]; [M + H]^+ = 370,–
CC1(C(O)(COc2cccc([N+](=O)[O-])c2)c2cncs2)CC1 (centres unmarked) [Compound 45],–,logP 2.62^[a]; [M + H]^+ = 321,–
CC(CF)(CF)C(O)(Cc1ccccc1Cl)c1cncs1 (centres unmarked) [Compound 46],–,logP 2.78^[a]; [M + H]^+ = 332,–
CC(CF)(CF)C(O)(Cc1ccccc1F)c1cncs1 (centres unmarked) [Compound 47],–,logP 2.47^[a]; [M + H]^+ = 316,–
CC(C)(C)C(O)(Cc1ccc(F)cc1)c1cncs1 (centres unmarked) [Compound 48],–,–,chromatographic logP [2]: 2.91
COc1cc(-c2ccccc2)ccc1OCC(O)(c1cncs1)C(C)(C)C (centres unmarked) [Compound 49],–,logP 4.02^[a]; [M + H]^+ = 384,–
CC(C)(C)C(O)(COc1ccc(-c2ccccc2)cc1)c1cncs1 (centres unmarked) [Compound 50],100,logP 4.03^[a]; [M + H]^+ = 354,–
CC(C)(C)C(O)(COc1ccc(-c2ccc(C#N)cc2)cc1)c1cncs1 (centres unmarked) [Compound 51],94,logP 3.46^[a]; [M + H]^+ = 379,–
CC(C)(C)C(O)(COc1ccc(-c2ccc(Br)cc2)cc1)c1cncs1 (centres unmarked) [Compound 52],100,logP 4.71^[a]; [M + H]^+ = 432/434,–
CC(C)(/C=C/Cl)C(O)(COc1ccc(Cl)cc1)c1cncs1 (centres unmarked) [Compound 54],95,logP 3.67^[a]; [M + H]^+ = 358,–
CC1(C(O)(COc2ccccc2I)c2cncs2)CC1 (centres unmarked) [Compound 55],–,logP 3.33^[a]; [M + H]^+ = 402,–
CC(C)(C)C(O)(COc1ccc(SC(F)(F)Cl)cc1)c1cncs1 (centres unmarked) [Compound 58],–,logP 4.23^[a]; [M + H]^+ = 394,–

SMILES,efficacy [5] [%],logP [2],other results
OC(Cc1cnc(Cl)s1)(Cc1ccccc1F)C1(Cl)CC1 (centres unmarked) [Compound 59],–,logP 4.21^[a]; [M + H]^+ = 346,–
CC(C)(C)C(O)(COc1ccc(Cl)cc1)Cc1cnc(Cl)s1 (centres unmarked) [Compound 61],–,logP 4.68^[a]; [M + H]^+ = 360,–
CC(C)(C)C(O)(COc1ccc(I)cc1)Cc1cnc(Cl)s1 (centres unmarked) [Compound 62],–,logP 5.12^[a]; [M + H]^+ = 452,–
CC(C)(C)C(O)(COc1ccc(F)cc1)Cc1cnc(Cl)s1 (centres unmarked) [Compound 63],–,logP 4.20^[a]; [M + H]^+ = 344,–
CC(C)(C)C(O)(COc1ccc(Cl)cc1)Cc1cncs1 (centres unmarked) [Compound 64],100,logP 3.49^[a]; [M + H]^+ = 326,–
CC(CF)(CF)C(O)(COc1ccc(Cl)cc1)Cc1cnc(Cl)s1 (centres unmarked) [Compound 65],–,logP 3.94^[a]; [M + H]^+ = 397,–
CC(C)(C)C(O)(COc1ccc(F)cc1)Cc1cncs1 (centres unmarked) [Compound 66],–,logP 3.16^[a]; [M + H]^+ = 310,–
CC(CF)(CF)C(O)(COc1ccc(Cl)cc1)Cc1cncs1 (centres unmarked) [Compound 67],95,logP 3.04^[a]; [M + H]^+ = 362,–
CC(C)[Si](c1ncc(C(O)(Cc2ccccc2Cl)C2(Cl)CC2)o1)(C(C)C)C(C)C (centres unmarked) [Compound 68],–,logP 7.18^[a]; [M + H]^+ = 455,–
OC(Cc1ccccc1Cl)(c1cnco1)C1(Cl)CC1 (centres unmarked) [Compound 69],–,logP 2.88^[a]; [M + H]^+ = 299,–
CC(C)[Si](c1ncc(C(O)(CCc2ccc(Cl)cc2)C(C)(C)C)o1)(C(C)C)C(C)C (centres unmarked) [Compound 70],–,logP 7.36^[a]; [M + H]^+ = 451,–
CC(C)(C)C(O)(CCc1ccc(Cl)cc1)c1cnco1 (centres unmarked) [Compound 71],–,logP 3.45^[a]; [M + H]^+ = 294,–
CC(C)(C)C(O)(CCc1ccc(Br)cc1)c1cncs1 (centres unmarked) [Compound 72],100,"logP 3.69^[a]; [M + H]^+ = 354, 356",–
COc1ccc(CCC(O)(c2cncs2)C(C)(C)C)cc1 (centres unmarked) [Compound 73],78,logP 2.94^[a]; [M + H]^+ = 306,–
CC(C)(C)C(O)(CCc1ccc(OC(F)(F)F)cc1)c1cncs1 (centres unmarked) [Compound 74],100,logP 3.93^[a]; [M + H]^+ = 360,–
CC(C)(C)C(O)(CCc1ccc([N+](=O)[O-])cc1)c1cncs1 (centres unmarked) [Compound 75],–,logP 2.98^[a]; [M + H]^+ = 321,–
CC(C)(C)C(O)(CCc1ccc(N)cc1)c1cncs1 (centres unmarked) [Compound 76],–,logP 1.16; [M + H]^+ = 291,–
CC(C)(C)c1ccc(CCC(O)(c2cncs2)C(C)(C)C)cc1 (centres unmarked) [Compound 77],–,logP 1.98^[a]; [M + H]^+ = 333,–
CCN(C)C=Nc1ccc(CCC(O)(c2cncs2)C(C)(C)C)cc1 (centres unmarked) [Compound 78],–,logP 1.33^[a]; [M + H]^+ = 360,–
CC(C)(C)C(O)(COc1ccc(C2CCCC2)cc1)c1cncs1 (centres unmarked) [Compound 80],94,logP 4.78^[a]; [M + H]^+ = 346,–
OC(COc1ccc(I)cc1)(c1cncs1)C1(C(F)(F)F)CC1 (centres unmarked) [Compound 81],–,logP 3.59^[a]; [M + H]^+ = 456,–
OC(COc1ccc(Br)cc1)(c1cncs1)C1(C(F)(F)F)CC1 (centres unmarked) [Compound 82],–,logP 3.43^[a]; [M + H]^+ = 408/410,–
